Key:
ABCA1 = test: Expression of the ABCA1 transporter (real-time PCR) in endothelial cells treated with cyclodextrins; format: cell-based, bovine; conditions: 1 mM cyclodextrin, 24 hours, ABAEs, compared with control, FIG. 3
Procedure: (§1) Cells: The endothelial cells were adult bovine aortic endothelial cells (ABAEs).
(§2) The cells were then cultured in this radioactive medium for 36 hours in order to allow them to incorporate the radioactive cholesterol. The medium was then removed and the cells were rinsed twice with warm DMEM containing 0.1% of bovine serum albumin (BSA). The cells were then cultured in DMEM/1 ng/ml bFGF containing 1 mM of each cyclodextrin for 24 hours (1.4 ml/well).
(§3) After 24 hours of treatment with each cyclodextrin, the cells were rinsed twice in cold PBS (8 g/l NaCl, 0.2 g/l KCl, 0.2 g/l KH2PO4, 2.87 g/l NA2HPO4 (12H2O), pH 7.4) and lyzed using 500 μl of RLT lysis buffer […]. Three wells were used and pooled for each condition. […] At the end of this purification step, the mRNA concentration was estimated by virtue of the absorbance values obtained at 260, 280 and 320 nm. […]
(§4) The amplification was carried out over the course of 40 cycles with a hybridization temperature of 60° C. using the Biorad CFX96 thermocycler. For each pair of primers, the amplification specificity was verified by producing melting curves and the efficiency was determined by producing dilution curves. The expression levels measured were then normalized on the expression levels of β-actin and cyclophillin B using the ΔΔCt method. […]

ABCG1 = test: Expression of the ABCG1 transporter (real-time PCR) in endothelial cells treated with cyclodextrins; format: cell-based, bovine; conditions: 1 mM cyclodextrin, 24 hours, ABAEs, compared with control, FIG. 4
Procedure: as §1, §2, §3, §4

[1] = tested on: adult bovine aortic endothelial cells (ABAEs); test: Cholesterol efflux: 3H-cholesterol captured by the cyclodextrins from aortic endothelial cells; format: cell-based; conditions: 1 mM cyclodextrin, 2 hours, FIG. 2
Description: as §1
Cyclodextrins: the cyclodextrins used were the following: a non-methylated β-cyclodextrin, hereinafter denoted “β-CD”, a methyl-β-cyclodextrin having an MS of 0.2, hereinafter denoted “MβCD-0.2”, a methyl-β-cyclodextrin having an MS of 0.67 (KLEPTOSE® CRYSMEB, ROQUETTE FRERES), hereinafter denoted “MβCD-0.67”, a methyl-β-cyclodextrin having an MS of 1.8 (RAMEB®, CYCLOLAB), hereinafter denoted “MβCD-1.8”.
0.5 μCi/ml of 3H-cholesterol was incorporated into serum (10% horse serum/calf serum (HS/CS)) for 6 hours at 37° C. for the purpose of obtaining a culture medium enriched with radioactive cholesterol. After this incorporation, the culture medium was finalized by incorporation of DMEM (Dulbecco's Modified Eagle's medium) supplemented with 10% HS, 10% CS, 1 ng/ml bFGF (basic fibroblast growth factor), 2 mM glutamine and 50 μg/ml gentamicin. […]
Two hours after the beginning of the incubation in the presence of each cyclodextrin, 500 μl of medium were removed and the radioactive cholesterol captured by the cyclodextrin was assayed by means of a scintillation counter (Tri-carb 2100TR). The radioactivity was measured in disintegrations per minute (DPM). The capacity of each cyclodextrin to capture cellular cholesterol was then estimated by performing the following calculation: ((1.4 ml/0.5 ml)×DPM measured). […]

## OC[C@H]1O[C@@H]2O[C@H]3[C@H](O)[C@@H](O)[C@@H](O[C@H]4[C@H](O)[C@@H](O)[C@@H](O[C@H]5[C@H](O)[C@@H](O)[C@@H](O[C@H]6[C@H](O)[C@@H](O)[C@@H](O[C@H]7[C@H](O)[C@@H](O)[C@@H](O[C@H]8[C@H](O)[C@@H](O)[C@@H](O[C@H]1[C@H](O)[C@H]2O)O[C@@H]8CO)O[C@@H]7CO)O[C@@H]6CO)O[C@@H]5CO)O[C@@H]4CO)O[C@@H]3CO [βCD, β-cyclodextrin]
ABCA1
  ABCA1 receptor expression (mRNA): strongly decreasing
ABCG1
  ABCG1 receptor expression (mRNA): strongly decreasing
[1]
  Cholesterol efflux (radioactive cholesterol captured by the cyclodextrin): rapid and considerable efflux
